In publication PMC7321161, “The Intriguing Effects of Substituents in the N-Phenethyl Moiety of Norhydromorphone: A Bifunctional Opioid from a Set of “Tail Wags Dog” Experiments” (Molecules, 2020):
“And” between values parts separate entries of the source, which are not always exact repeats. Identical values can stand only once.

Experiments:
[1] = molecular target: T1, human μ-opioid receptor (OPRM1) (Homo sapiens, UniProt P35372); assay: cell-based; conditions: for EC50: MOR cAMP Agonist Potency ± SEM; for Emax: OPRM1, read-out: MOR cAMP % Efficacy
T1 construct: host or cells: HitHunter CHO-K1 cells
T1 sequence (P35372 whole entry): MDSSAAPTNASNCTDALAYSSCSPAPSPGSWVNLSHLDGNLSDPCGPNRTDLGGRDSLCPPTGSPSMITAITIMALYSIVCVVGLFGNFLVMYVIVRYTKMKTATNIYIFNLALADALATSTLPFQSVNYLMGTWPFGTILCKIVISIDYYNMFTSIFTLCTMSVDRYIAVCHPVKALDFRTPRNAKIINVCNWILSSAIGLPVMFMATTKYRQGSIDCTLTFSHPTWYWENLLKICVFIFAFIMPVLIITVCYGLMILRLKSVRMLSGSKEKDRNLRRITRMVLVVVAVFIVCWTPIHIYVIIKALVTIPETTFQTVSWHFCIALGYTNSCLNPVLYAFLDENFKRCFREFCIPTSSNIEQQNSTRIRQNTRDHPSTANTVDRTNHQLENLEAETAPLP

[2] = molecular target: T2, human κ-opioid receptor (OPRK1) (Homo sapiens, UniProt P41145); assay: cell-based; conditions: for Emax: CHO-K1, read-out: KOR cAMP % Efficacy; for EC50: KOR cAMP Agonist Potency ± SEM
T2 construct: host or cells: HitHunter CHO-K1 cells
T2 sequence (P41145 whole entry): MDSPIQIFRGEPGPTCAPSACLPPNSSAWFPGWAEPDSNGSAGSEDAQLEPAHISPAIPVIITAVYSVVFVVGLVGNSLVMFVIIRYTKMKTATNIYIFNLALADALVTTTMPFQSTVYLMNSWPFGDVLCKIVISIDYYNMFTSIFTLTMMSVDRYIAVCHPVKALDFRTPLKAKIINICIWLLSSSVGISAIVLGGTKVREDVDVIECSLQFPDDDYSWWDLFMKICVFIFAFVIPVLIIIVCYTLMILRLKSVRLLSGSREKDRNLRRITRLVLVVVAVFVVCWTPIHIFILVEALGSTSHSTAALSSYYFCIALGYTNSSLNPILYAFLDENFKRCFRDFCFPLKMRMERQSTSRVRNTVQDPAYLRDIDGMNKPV

[3] = molecular target: T3, human δ-receptor (OPRMD1) (Homo sapiens, UniProt P41143); assay: cell-based; format: cell-based; conditions: for Emax: CHO-K1, read-out: DOR cAMP % Efficacy; for EC50: DOR cAMP Agonist Potency ± SEM
T3 construct: host or cells: HitHunter CHO-K1 cells
T3 sequence (P41143 whole entry): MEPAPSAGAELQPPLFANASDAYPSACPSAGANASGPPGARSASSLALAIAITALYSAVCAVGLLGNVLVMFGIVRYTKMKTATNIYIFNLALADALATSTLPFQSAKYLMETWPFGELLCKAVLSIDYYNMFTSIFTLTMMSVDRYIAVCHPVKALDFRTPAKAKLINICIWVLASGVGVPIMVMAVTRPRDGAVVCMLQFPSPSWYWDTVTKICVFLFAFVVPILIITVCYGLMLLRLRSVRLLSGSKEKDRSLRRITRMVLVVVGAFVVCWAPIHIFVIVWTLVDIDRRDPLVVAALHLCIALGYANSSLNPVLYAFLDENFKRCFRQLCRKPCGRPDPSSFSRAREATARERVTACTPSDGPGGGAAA

[4] = molecular target: T4, human μ-opioid receptor β-arrestin-2 (Homo sapiens, UniProt P35372); assay: cell-based; conditions: for Emax: read-out: MOR Mediated β-arrestin Recruitment (% Control, Emax DAMGO)
T4 construct: enzyme fragment for EFC (β-galactosidase ProLink fragment, by own knowledge of the PathHunter system); host or cells: PathHunter CHO cells
T4 sequence (P35372 whole entry, the tested form may be a part): as the sequence (P35372 whole entry) above

δ-opioid receptor (DOR) = molecular target: T5, δ-opioid receptor (DOR) (Rattus norvegicus, UniProt P33533); assay: Opioid receptor binding, δ sites ([3H]DADLE), rat brain homogenate
T5 construct: Frozen whole rat brains excluding cerebellum were thawed on ice; from tissue; host or cells: whole rat brain excluding cerebellum, membrane homogenate
T5 sequence (P33533 whole entry): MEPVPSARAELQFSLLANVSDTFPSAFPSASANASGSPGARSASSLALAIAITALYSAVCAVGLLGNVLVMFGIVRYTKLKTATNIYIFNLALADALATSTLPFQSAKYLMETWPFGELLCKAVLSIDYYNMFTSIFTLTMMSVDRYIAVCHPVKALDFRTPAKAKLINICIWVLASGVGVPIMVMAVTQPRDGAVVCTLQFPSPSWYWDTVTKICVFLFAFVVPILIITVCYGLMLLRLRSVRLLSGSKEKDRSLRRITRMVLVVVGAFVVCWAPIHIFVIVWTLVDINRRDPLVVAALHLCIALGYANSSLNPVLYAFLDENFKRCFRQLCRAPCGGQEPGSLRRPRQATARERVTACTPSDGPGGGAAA

human KOR = molecular target: T6, human KOR (Homo sapiens, UniProt P41145); assay: Stimulation of [35S]GTPγS binding, CHO cell membranes expressing KOR; format: biochemical
T6 construct: expressed in transfected cells; membranes
T6 sequence (P41145 whole entry): as the sequence (P41145 whole entry) above

rat MOR = molecular target: T7, rat MOR (Rattus norvegicus, UniProt P33535); assay: Stimulation of [35S]GTPγS binding, C6 glioma cell membranes expressing MOR; format: biochemical; conditions: for MOR activity type in the [35S]GTPγS assay: antagonist activity assumed from high MOR affinity and lack of stimulation; for MOR % Stimulation, [35S]GTPγS: compared to standard maximal DAMGO
T7 construct: expressed in transfected cells; host or cells: C6 rat glioma cells, stably transfected; membranes
T7 sequence (P33535 whole entry): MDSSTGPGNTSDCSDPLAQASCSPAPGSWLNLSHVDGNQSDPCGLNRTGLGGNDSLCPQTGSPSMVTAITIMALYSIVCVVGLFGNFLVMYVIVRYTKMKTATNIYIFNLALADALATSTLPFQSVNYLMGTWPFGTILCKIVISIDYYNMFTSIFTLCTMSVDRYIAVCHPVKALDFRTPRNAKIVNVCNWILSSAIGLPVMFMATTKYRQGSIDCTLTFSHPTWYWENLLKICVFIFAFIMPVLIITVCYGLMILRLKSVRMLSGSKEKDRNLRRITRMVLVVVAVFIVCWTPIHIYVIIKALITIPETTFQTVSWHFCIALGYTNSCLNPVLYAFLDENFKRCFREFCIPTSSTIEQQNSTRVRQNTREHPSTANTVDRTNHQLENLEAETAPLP

μ-opioid receptor (MOR) = molecular target: T8, μ-opioid receptor (MOR) (Rattus norvegicus, UniProt P33535); assay: Opioid receptor binding, μ sites ([3H]DAMGO), rat brain homogenate
T8 construct: Frozen whole rat brains excluding cerebellum were thawed on ice; from tissue; host or cells: whole rat brain excluding cerebellum, membrane homogenate
T8 sequence (P33535 whole entry): as above

κ-opioid receptor (KOR) = molecular target: T9, κ-opioid receptor (KOR) (Rattus norvegicus, UniProt P34975); assay: Opioid receptor binding, κ sites ([3H]U69,593), rat brain homogenate; conditions: for Ki: KOR Binding (Ki), whole rat brain excluding cerebellum, [3H]U69,593, Ki ± SEM; for KOR Binding, exploratory binding assay: radioligand displacement at 100 nM
T9 construct: Frozen whole rat brains excluding cerebellum were thawed on ice; from tissue; host or cells: whole rat brain excluding cerebellum, membrane homogenate
T9 sequence (P34975 whole entry): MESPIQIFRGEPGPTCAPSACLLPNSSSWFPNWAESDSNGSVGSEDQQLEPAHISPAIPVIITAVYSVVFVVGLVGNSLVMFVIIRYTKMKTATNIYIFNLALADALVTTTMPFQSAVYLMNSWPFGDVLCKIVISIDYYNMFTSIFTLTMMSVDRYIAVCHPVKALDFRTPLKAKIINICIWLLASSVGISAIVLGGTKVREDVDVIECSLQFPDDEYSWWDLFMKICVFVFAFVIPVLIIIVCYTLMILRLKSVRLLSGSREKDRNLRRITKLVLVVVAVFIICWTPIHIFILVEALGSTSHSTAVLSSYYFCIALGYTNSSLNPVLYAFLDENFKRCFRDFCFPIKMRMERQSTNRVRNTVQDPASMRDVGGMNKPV

rat DOR = molecular target: T10, rat DOR (Rattus norvegicus, UniProt P33533); assay: Stimulation of [35S]GTPγS binding, C6 glioma cell membranes expressing DOR; format: biochemical; conditions: for EC50: DOR EC50, [35S]GTPγS, C6 cells expressing DOR, mean ± SEM; for DOR % Stimulation, [35S]GTPγS: compared to standard maximal DPDPE
T10 construct: expressed in transfected cells; host or cells: C6 rat glioma cells, stably transfected; membranes
T10 sequence (P33533 whole entry): as the sequence (P33533 whole entry) above

| SMILES | EC50 [1] [nM] | Emax [1] [%] | Emax [2] [%] | EC50 [2] | Emax [3] [%] | EC50 [3] [nM] | Bias Factor [4] | EC50 [4] [nM] | Emax [4] [%] | Ki (δ-opioid receptor (DOR)) [nM] | Ki (μ-opioid receptor (MOR)) [nM] | Ki (κ-opioid receptor (KOR)) [nM] | EC50 (rat MOR) [nM] | MOR % Stimulation, [35S]GTPγS (rat MOR) | further results |
| --- | --- | --- | --- | --- | --- | --- | --- | --- | --- | --- | --- | --- | --- | --- | --- |
| O=C1CCC2C3Cc4ccc(O)c5c4[C@@]2(CCN3CCc2c(Cl)cccc2Cl)[C@H]1O5 (stereo partly drawn) [Compound 2k, (7aR,12bS)-3-(2,6-Dichlorophenethyl)-9-hydroxy-2,3,4,4a,5,6-hexahydro-1H-4,12-methanobenzofuro[3,2-e]isoquinolin-7(7aH)-one] | 0.37 | 101 | 74 | 1880 nM | 95.8 | 21.9 | 1.04 | 13.1 | 24.6 |  |  |  |  |  |  |
| N#CCCCN1CCC23c4c5ccc(O)c4OC2C(=O)CCC3C1C5 (stereo not drawn) [Compound 1b] |  |  |  |  |  |  |  |  |  | 72.2 ± 1.2 | 4.25 ± 0.29 | 2.71 ± 0.22 |  |  | EC50 (human KOR): 24.3 ± 5 nM; KOR % Stimulation, [35S]GTPγS (human KOR; compared to standard maximal U69593): 89.6 ± 0.9%; MOR EC50, [35S]GTPγS (rat MOR; C6 cells expressing MOR, mean ± SEM, DNS = no stimulation): DNS; MOR activity type in the [35S]GTPγS assay (rat MOR): MOR antagonist |
| N#CCN1CC[C@]23c4c5ccc(O)c4O[C@H]2C(=O)CCC3C1C5 (stereo partly drawn) [Compound 1a, 2-((7aR,12bS)-9-Hydroxy-7-oxo-1,2,4,4a,5,6,7,7a-octahydro-3H-4,12-methanobenzofuro[3,2-e]isoquinolin-3-yl)acetonitrile] | 4.16 | 102 | 99.3 | 109 nM | 77 | 254 | 2.18 | 424 | 33.4 | 141 ± 2.8 | 4.51 ± 0.27 | 90.3 ± 6.6 | 425 ± 133 | 47% and 47.1 ± 3.3% |  |
| O=C1CCC2C3Cc4ccc(O)c5c4C2(CCN3CCc2ccccc2)C1O5 (stereo not drawn) [Compound S11, N-Phenethylnorhydromorphone] | 0.04 | 102 | 80.6 | 23 nM and 22.7 nM | 95.1 | 1.54 | 0.47 | 1.71 | 61.9 |  |  |  |  |  | EC50 δ/μ ratio in the cAMP assay [3]: 38.5 and 39 |
| O=C1CCC2C3Cc4ccc(O)c5c4[C@@]2(CCN3CCc2ccc([N+](=O)[O-])cc2)[C@H]1O5 (stereo partly drawn) [Compound 2a, (7aR,12bS)-9-Hydroxy-3-(4-nitrophenethyl)-2,3,4,4a,5,6-hexahydro-1H-4,12-methanobenzofuro[3,2-e]-isoquinolin-7(7aH)-one] | 0.05 | 102 | 63 | 74.6 nM | 96 | 0.53 | 4.51 | 6.38 | 26.2 | 6.07 ± 0.86 | 0.52 ± 0.01 | 56 ± 8.2 | 1.9 ± 0.5 | 26.6 ± 1.4% | EC50 (rat DOR): 227 ± 53 nM; DOR % Stimulation, [35S]GTPγS (rat DOR): 64.3 ± 3.3%; MOR activity type in the [35S]GTPγS assay (rat MOR): potent MOR agonist |
| O=C1CCC2C3Cc4ccc(O)c5c4[C@@]2(CCN3CC=Cc2ccccc2)[C@H]1O5 (stereo partly drawn) [Compound 1c, (7aR,12bS)-3-Cinnamyl-9-hydroxy-2,3,4,4a,5,6-hexahydro-1H-4,12-methanobenzofuro[3,2-e]isoquinolin-7(7aH)-one] | 76.7 | 103 |  | > 10000 nM | 96.5 | 1700 | 1.35 | 584 | 4.1 |  | 90.5 ± 11 |  |  |  | DOR Binding, exploratory binding assay (δ-opioid receptor (DOR); radioligand displacement at 100 nM): NT (NT = not tested—inactive (<50% activity at 100 nM concentration in exploratory binding assays (displaced less than half of radioligand)); KOR Binding, exploratory binding assay (κ-opioid receptor (KOR)): NT (NT = not tested—inactive (<50% activity at 100 nM concentration in exploratory binding assays (displaced less than half of radioligand)) |
| O=C1CCC2C3Cc4ccc(O)c5c4[C@@]2(CCN3CCc2ccc(C(F)(F)F)cc2)[C@H]1O5 (stereo partly drawn) [Compound 2h, (7aR,12bS)-9-Hydroxy-3-(4-(trifluoromethyl)phenethyl)-2,3,4,4a,5,6-hexahydro-1H-4,12-methanobenzofuro-[3,2-e]isoquinolin-7(7aH)-one] | 0.21 | 102 | 95.7 | 98.2 nM | 94.3 | 2.41 | 0.56 | 10.3 | 62.4 | 16.4 ± 0.4 | 2.7 ± 0.17 |  | 3.4 ± 1.2 | 72.2 ± 5.5% | EC50 (rat DOR): 36 nM and 35.7 nM; DOR % Stimulation, [35S]GTPγS (rat DOR): 82.3 ± 2.3%; KOR Binding, exploratory binding assay (κ-opioid receptor (KOR)): NT (NT = not tested—inactive (<50% activity at 100 nM concentration in exploratory binding assays (displaced less than half of radioligand)) |
